Legend:
Experiment in all cases: Gene expression (quantitative RT-PCR) in TGFβ1-activated hHSC
Type in all cases: cell-based, human
[1] = system: FGFR1 gene expression in hHSC; settings: 3 μM; TGFβ1 1 ng/mL, 24 hours, serum free
Procedure: (§1) The human primary hepatic stellate cells (hHSC) (ScienCell) were cultured under standard conditions, as described above. For experiments to determine gene expression patterns, hHSC were plated at a density of 1.4×10^5 cells/well into 12-well plates and were cultured overnight. […] Cells were treated with compounds in addition to TGFβ1 (1 ng/mL) in a serum-free and SteCGS-free medium for 24 hours.
(§2) Total RNA was isolated using RNeasy® Mini Kit (Qiagen) following manufacturer's instructions.
(§3) Quantitative PCR was then carried out using the MyiQ Single-Color Real-Time PCR Detection or the iCycler iQ Multiplex Real-Time PCR Detection System (both systems from Biorad). Briefly, PCR reactions were performed in 96 Well plates on 5 μL of 5× diluted reverse transcription mix using the iQ SYBR Green Supermix kit. The experimental conditions were: 25 μL of volume reaction, 3 mM of MgCl2, and 0.5 μL each of reverse and forward primers (10 pMol).
(§4) Expression levels were normalized using the expression of 36B4 gene as reference.
(§5) Expression levels were determined using the standard curve equation for both the housekeeping gene and the target gene (taking into account the specific PCR efficiency of each target gene).
(§6) The induction factor vs TGFβ1 was determined as follow: […]

[2] = system: TGFβR1 gene expression in hHSC; settings: 10 μM; TGFβ1 1 ng/mL, 24 hours, serum free
Procedure: as §1, §2, §3, §4, §5, §6

[3] = system: Col4α1 gene expression in hHSC; settings: 10 μM; TGFβ1 1 ng/mL, 24 hours, serum free
Procedure: (§7) The human primary hepatic stellate cells (hHSC) (ScienCell) were cultured under standard conditions, as described above. For experiments to determine gene expression patterns, hHSC were plated at a density of 1.4×10^5 cells/well into 12-well plates and were cultured overnight. Next day, culture medium was removed, cells were washed with PBS (Invitrogen cat #14190) and serum-free and SteCGS-free medium was added for an additional 16 hours. Cells were treated with compounds in addition to TGFβ1 (1 ng/mL) in a serum-free and SteCGS-free medium for 24 hours.
(§8) Total RNA was isolated using RNeasy® Mini Kit (Qiagen) following manufacturer's instructions. 250 ng of total RNA were reverse transcribed in cDNA using M-MLV RT (Moloney Murine Leukemia Virus Reverse Transcriptase) (Invitrogen cat #28025) in presence of RT buffer 1× (Invitrogen), 1 mM DTT (Invitrogen), 0.18 mM dNTPs (Promega), 200 ng pdN6 (Amersham) and 30 U of RNase inhibitor (Promega).
as §3, §4
(§9) For each gene, the standard curves were drawn by selecting the best points (at least three points) in order to have PCR reaction efficiency close to 100% and a correlation coefficient close to 1. Expression levels were determined using the standard curve equation for both the housekeeping gene and the target gene (taking into account the specific PCR efficiency of each target gene).
as §6
(§10) Thus, lower the induction factor is more the compound of interest inhibits the TGFβ1 activation of hHSC. Experimental results were expressed as mean±standard deviation (SD) of the induction factor.
(§11) The expression of both profibrotic and cancer associated genes was induced in the primary human hepatic stellate cells (hHSCs) by the treatment with the TGFβ1 (1 ng/mL) in serum free conditions. […] The expression of the genes of interest in both treated and untreated hHSCs was determined by the quantitative RT-PCR technique, following 24 hours of exposure to the TGFβ1.
(§12) Experimental results were expressed as Emax values that indicate the maximum inhibition, which was obtained at the concentration of 10 μmole/L. Statistical analyses were performed using an one-way ANOVA followed by Bonferroni post-hoc tests, using Sigma Plot 11.0 software.

[4] = system: HGFR gene expression in hHSC; settings: 10 μM; TGFβ1 1 ng/mL, 24 hours, serum free
Procedure: as §7, §8, §3, §4, §9, §6, §10, §11, §12

[5] = system: αSMA gene expression in hHSC; settings: 10 μM; TGFβ1 1 ng/mL, 24 hours, serum free
Procedure: as §7, §8, §3, §4, §9, §6, §10, §11, §12

[6] = system: VEGFR1 gene expression in hHSC; settings: 10 μM; TGFβ1 1 ng/mL, 24 hours, serum free
Procedure: as §7, §8, §3, §4, §9, §6, §10, §11, §12

[7] = system: Col1α1 gene expression in hHSC; settings: 3 μM; TGFβ1 1 ng/mL, 24 hours, serum free
Procedure: as §7
Total RNA was isolated using RNeasy® Mini Kit (Qiagen) following manufacturer's instructions. […]
Quantitative PCR was then carried out using the MyiQ Single-Color Real-Time PCR Detection or the iCycler iQ Multiplex Real-Time PCR Detection System (both systems from Biorad). […]
as §9, §6

## CNC(=O)c1cc(Oc2ccc(NC(=O)Nc3ccc(Cl)c(C(F)(F)F)c3)cc2)ccn1 [Sorafenib]
[1]
  Emax, reduction in FGFR1 gene expression vs hHSC treated with TGFβ1 alone: −43%
[2]
  Emax, reduction in TGFβR1 gene expression vs hHSC treated with TGFβ1 alone: −80%
[3]
  Emax, reduction in Col4α1 gene expression vs hHSC treated with TGFβ1 alone: −93%
[4]
  Emax, reduction in HGFR gene expression vs hHSC treated with TGFβ1 alone: −79%
[5]
  Emax, reduction in αSMA gene expression vs hHSC treated with TGFβ1 alone: −95%
[6]
  Emax, reduction in VEGFR1 gene expression vs hHSC treated with TGFβ1 alone: −95%
[7]
  Emax, reduction in Col1α1 gene expression vs hHSC treated with TGFβ1 alone: −93%
